Literature values in patent US20100197704A1, “PHARMACEUTICAL COMPOSITIONS AND METHOD FOR TREATING ACUTE MANIA” (priority 2007, published 2010).

Key:
Conditions in all cases: cited from earlier work
presynaptic D2 receptors = presynaptic D2 receptors (Homo sapiens, UniProt P14416)
5-HT2C = target: T1, 5-HT2C (Homo sapiens, UniProt P28335)
T1 sequence (P28335 33-458): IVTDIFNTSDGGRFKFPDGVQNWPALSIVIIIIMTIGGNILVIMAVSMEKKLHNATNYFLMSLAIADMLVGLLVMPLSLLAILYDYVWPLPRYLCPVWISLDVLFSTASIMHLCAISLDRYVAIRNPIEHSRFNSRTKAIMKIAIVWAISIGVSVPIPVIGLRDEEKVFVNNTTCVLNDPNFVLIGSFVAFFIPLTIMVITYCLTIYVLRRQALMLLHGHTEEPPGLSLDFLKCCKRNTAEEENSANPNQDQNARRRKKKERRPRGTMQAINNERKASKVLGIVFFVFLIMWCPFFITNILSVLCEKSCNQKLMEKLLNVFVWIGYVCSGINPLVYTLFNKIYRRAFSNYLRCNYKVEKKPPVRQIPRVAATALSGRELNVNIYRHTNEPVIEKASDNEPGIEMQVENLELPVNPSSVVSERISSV

histamine H1 = histamine H1 (Homo sapiens, UniProt P35367)
[1] = system: adrenergic receptor sites
[2] = target: T2, serotonin 5-HT1A receptors (Homo sapiens, UniProt P08908)
T2 sequence (P08908 1-422): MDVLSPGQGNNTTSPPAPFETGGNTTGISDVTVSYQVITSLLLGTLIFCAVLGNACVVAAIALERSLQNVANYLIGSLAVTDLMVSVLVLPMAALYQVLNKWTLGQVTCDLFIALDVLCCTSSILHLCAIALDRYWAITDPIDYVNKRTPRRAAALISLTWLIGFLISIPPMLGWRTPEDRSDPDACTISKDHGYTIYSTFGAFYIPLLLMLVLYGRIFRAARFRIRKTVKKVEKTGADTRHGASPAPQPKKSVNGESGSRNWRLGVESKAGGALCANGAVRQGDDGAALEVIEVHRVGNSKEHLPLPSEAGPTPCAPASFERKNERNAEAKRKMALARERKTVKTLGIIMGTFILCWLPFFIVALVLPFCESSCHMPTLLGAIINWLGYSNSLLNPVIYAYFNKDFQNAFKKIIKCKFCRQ

[3] = target: T2, serotonin 5-HT1A receptors; remark: listed apart in the source

Sequence of presynaptic D2 receptors (P14416 whole entry): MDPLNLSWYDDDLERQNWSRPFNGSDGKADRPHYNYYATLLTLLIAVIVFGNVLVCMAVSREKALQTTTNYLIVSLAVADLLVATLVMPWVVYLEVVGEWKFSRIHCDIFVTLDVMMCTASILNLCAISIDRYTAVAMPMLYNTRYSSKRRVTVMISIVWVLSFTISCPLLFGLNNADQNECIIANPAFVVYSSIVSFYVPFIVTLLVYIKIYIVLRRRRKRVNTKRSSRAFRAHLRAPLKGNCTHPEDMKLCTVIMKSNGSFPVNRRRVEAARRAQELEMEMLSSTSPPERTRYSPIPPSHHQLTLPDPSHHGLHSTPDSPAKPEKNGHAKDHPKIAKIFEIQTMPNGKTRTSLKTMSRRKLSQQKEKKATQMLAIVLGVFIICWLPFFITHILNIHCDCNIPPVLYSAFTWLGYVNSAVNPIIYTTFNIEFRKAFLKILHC
Sequence of histamine H1 (P35367 whole entry): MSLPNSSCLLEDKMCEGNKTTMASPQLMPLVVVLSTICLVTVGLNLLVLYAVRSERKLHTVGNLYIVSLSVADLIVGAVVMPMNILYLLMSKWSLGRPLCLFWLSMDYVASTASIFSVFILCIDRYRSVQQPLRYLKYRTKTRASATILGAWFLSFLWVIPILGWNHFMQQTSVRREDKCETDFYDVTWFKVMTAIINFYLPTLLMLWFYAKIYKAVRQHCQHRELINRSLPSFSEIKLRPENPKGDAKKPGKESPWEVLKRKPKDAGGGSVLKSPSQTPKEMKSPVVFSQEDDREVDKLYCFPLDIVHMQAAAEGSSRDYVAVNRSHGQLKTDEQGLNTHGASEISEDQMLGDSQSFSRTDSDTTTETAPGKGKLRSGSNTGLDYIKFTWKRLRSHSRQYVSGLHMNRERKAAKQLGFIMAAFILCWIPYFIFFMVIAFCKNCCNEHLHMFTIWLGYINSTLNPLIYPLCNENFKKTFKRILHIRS

CN(C)C(=O)NC1CCC(CCN2CCN(c3cccc(Cl)c3Cl)CC2)CC1.Cl (stereo not drawn) [trans-4-{2-[4-(2,3-dichlorophenyl)-piperazin-1-yl]-ethyl}-N,N-dimethylcarbamoyl-cyclohexylamine hydrochloride]
activity on biosynthesis (and release) modulating presynaptic D2 receptors (presynaptic D2 receptors; depending on the functional status of the particular dopaminergic system): both (partial) agonist and antagonist activity
in vivo mode of action on the dopamine system (presynaptic D2 receptors; in vivo, preferential dopaminergic actions in the limbic regions): dopamine system stabilizer
potency at 5-HT2C receptor site (5-HT2C): low potency
potency at histamine H1 receptor site (histamine H1): low potency
potency at adrenergic receptor sites [1]: low potency
affinity for serotonin 5-HT1A receptors [2]: considerable affinity
functional activity at serotonin 5-HT1A receptors [3]: partial agonist
